Data as given in patent US20240255529A1, “NOVEL ASSAY AND NOVEL METHODS OF TREATING AGING-RELATED CONDITIONS” (The Progeria Research Foundation, priority 2021, published 2024).

Legend:
[1] = system: plasma progerin; experiment: Plasma progerin (SMC progerin immunoassay) in HGPS clinical trial patients on therapy; type: in vivo, human
Excerpt: An SMC ultrasensitive immunoassay for the detection of plasma progerin was developed. Overall, the assay employed a sandwich immunoassay format with an anti-lamin A capture antibody coated on magnetic microparticles, and an anti-progerin specific detection antibody conjugated to a fluorescent tag (FIG. 1) run in a 96-well plate. Progerin-bound detection antibody was eluted and read as single molecules using a confocal laser.
The SMC assay for measuring Progerin was as previously described (Todd et al.), except that magnetic microparticles (MP) coated with capture antibodies and detection reagents were specific to the progerin assay (FIG. 1). Briefly, the progerin capture antibody (mouse Mab anti-Lamin A+C, clone: 131C3 Abcam, epitope between amino acid residues 319-566, common to Lamins A, C and progerin) was coated onto MP at 25 μg antibody/mg MP. Samples were exposed to the MP-capture antibody, to specifically bind analyte, followed by one plate wash to remove unbound material. Next, fluorescently labeled progerin-specific detection antibody (Mouse Mab, clone: 13A4, from Millipore, epitope between amino acids 604 and 611 of progerin, which cross the deletion region of lamin A), pre-diluted to 2,000 ng/mL in assay buffer and then filtered through a 0.2 μm filter (MilliporeSigma), was added to wells. Plates were then washed 4 times to remove any unbound detection antibody. All MPs were then transferred from the initial 96-well assay plate to a new plate to avoid eluting any non-specific plate-bound detection antibody. Progerin-bound detection antibody was then eluted by pH shift using a proprietary glycine buffer, transferred to a new plate and detected by SMC using the Erenna Immunoassay System software (SgxLink™). The raw signal data and the interpolated value data obtained from SgxLink were transferred to Excel where precision was then calculated for the replicate wells. The acceptance specification for raw signal and interpolated values was precision and recovery bias≤20%.
A 12-point standard curve of recombinant progerin (Abcam 93918) diluted in EMD standard diluent, a synthetic serum-based solution containing a proprietary mixture of Tris buffer and carrier protein (emdmillipore.com), was run on each plate in triplicate. The standard curve was used to determine progerin concentration in unknown samples. Samples were diluted in standard diluent so that anticipated progerin fell within the dynamic range of the standard curve. All reported progerin and SD are dilution-corrected. All samples were tested in duplicate, unless triplicate is specified.
Human clinical data was obtained from The PRF International Progeria Registry, Diagnostics Program, and Medical and Research Database (available online at progeriaresearch.org). HGPS plasma and serum were obtained from The PRF Cell and Tissue Bank (available online at progeriaresearch.org). Clinical trial samples were donated to the Bank from Boston Children's Hospital (BCH) with informed consent or approval from the BCH Committee on Clinical Investigation. Trial samples were collected in a fasting state, in the morning just prior to treatment dosing as trough samples, except pK samples which were collected at trough and then at specified times post-trough. Non-trial samples were not regulated as to time of day collected. Some nonHGPS healthy human plasma samples were obtained from ProMedDx. HGPS and nonHGPS plasma sample IDs were assigned HGPI and NPI prefixes, respectively.
For analysis, samples were fully thawed at RT for <5 min, lightly mixed, diluted in standard diluent before transferring into filter plate wells (MilliporeSigma MSBVN1210). Patient plasma volumes required for analysis were 200 or 100 μl (nonHGPS 1:1 and 1:2) and 8 μl (HGPS 1:25) to generate duplicates. Filter plates with sample were centrifuged for 10 minutes to pull sample through the filters. Filtrate was then assessed as described. […]

[2] = system: patients with HGPS; experiment: Life expectancy versus progerin decrease and time on lonafarnib therapy (dynamic model based on cRMST); type: in vivo, human
Excerpt: To quantify increase in life expectancy as it related to decrease in progerin and duration of time on lonafarnib therapy, the methodology by Yang et al. (2021), which proposes a dynamic model that utilizes a series of landmark time points (Dafni, 2011) based on the conditional restricted mean survival time (cRMST), was utilized. This analysis also adjusted for sex and age at baseline.
Next, the relationship between lonafarnib treatment duration and change in life expectancy with extent of change in plasma progerin was assessed (FIG. 7, Table 7). This analysis included samples from patients with a baseline pre-therapy and at least one on-treatment progerin measurement (N=65 patients). […] Three representative wide-ranging examples of on-therapy progerin decreases (1,000, 10,000 and 15,000 pg/mL) spanning 10 years on treatment are graphed in FIG. 7. Patient lifespan increased in all 3 examples.

[3] = children with HGPS treated with lonafarnib during a clinical trial; cited from earlier work
[4] = system: children with HGPS; settings: children with HGPS treated with lonafarnib; cited from earlier work

## NC(=O)N1CCC(CC(=O)N2CCC([C@H]3c4ncc(Br)cc4CCc4cc(Cl)cc(Br)c43)CC2)CC1 [lonafarnib]
[1]; 10 patients, extension 4.1±0.5 years, p=0.99
  average progerin, consecutive Triple Therapy vs on-treatment lonafarnib monotherapy extension visits: no significant differences
[1]; ProLon1, 5 remaining visits, lonafarnib 150 mg/m^2, N=22-25, all p<0.0001
  average decreases in progerin from baseline: 50-62%
[1]; ProLon1, each of the 4 trial visits after the 8-month visit, N=22-25, all p<0.05
  progerin at 150 mg/m^2 lonafarnib versus the 115 mg/m^2 dose: significantly decreased
[1]; ProLon1, month 4, lonafarnib 115 mg/m^2, N=25, p<0.0001
  average progerin decrease from baseline: 48%
[1]; ProLon1 pK samples, lonafarnib 115 mg/m^2, all p<0.05
  average difference of progerin trough (lower) from 2-, 4- and 8-hours post-dose: about 3,000 pg/mL
[1]; ProLon1 pK samples, lonafarnib 150 mg/m^2, all p≥0.05
  progerin post-dose (hours 1,2,4,6,8) vs. trough levels: did not demonstrate significant changes
[1]; ProLon2, lonafarnib monotherapy 150 mg/m^2, dosing period, N=26, p<0.0001
  average progerin decrease from baseline: 36.7%
[1]; lonafarnib therapy, HGPS patients
  time to significant decrease of plasma progerin levels: ≤ 4 months
[1]; long-term continuous therapy subgroup N=13, all subsequent time points, 150 mg/m^2, up to 9.8±0.5 years, p<0.0001
  average decreases in progerin from baseline: 56-74%
[1]; long-term continuous therapy subgroup N=13, month 4, 115 mg/m^2, p<0.0001
  average progerin decrease from baseline: 48%
[1]; on therapy, HGPS trial patients
  average decrease of trial patients' plasma progerin: more than 14,000 pg/mL
[1]; overall, all trials, HGPS patients, p<0.0001
  average on-therapy plasma progerin decrease from baseline untreated: 38%
[1]; overall, all trials, baseline untreated 32,726±12,659 pg/mL
  average on-therapy plasma progerin: 20,211±10,190 pg/mL
[2]; 13 patients on therapy for over 10 years
  estimated increase in life expectancy: ~6 years
[2]; from 14.5 to over 20 years of age, 13 patients on therapy over 10 years
  increase in average lifespan: greater than 40%
[3]
  Cmax: 2640 ng/mL
[4]
  increased survival, estimated, on average: 2.5 years
